According to PubChem BioAssay (NCI):
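48-hour exposure; five concentrations; linearly interpolated endpoints. Here, GI50 denotes the concentration required for 50% inhibition of growth. Definition used: TGI = concentration required for complete inhibition of growth.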

Experiments:
Assay in all cases: growth of human tumour cells (NCI), 48 h
786-0 renal = system: 786-0 renal
A498 renal = system: A498 renal
A549 NSCLC = system: A549 NSCLC
ACHN renal = system: ACHN renal
BT-549 breast = system: BT-549 breast
CAKI-1 renal = system: CAKI-1 renal
CCRF-CEM leukemia = system: CCRF-CEM leukemia
COLO 205 colon = system: COLO 205 colon
DU-145 prostate = system: DU-145 prostate
EKVX NSCLC = system: EKVX NSCLC
HCC-2998 colon = system: HCC-2998 colon
HCT-116 colon = system: HCT-116 colon
HCT-15 colon = system: HCT-15 colon
HL-60(TB) leukemia = system: HL-60(TB) leukemia
HOP-62 NSCLC = system: HOP-62 NSCLC
HOP-92 NSCLC = system: HOP-92 NSCLC
HS 578T breast = system: HS 578T breast
HT29 colon = system: HT29 colon
IGROV1 ovarian = system: IGROV1 ovarian
K-562 leukemia = system: K-562 leukemia
KM12 colon = system: KM12 colon
LOX IMVI melanoma = system: LOX IMVI melanoma
M14 melanoma = system: M14 melanoma
MALME-3M melanoma = system: MALME-3M melanoma
MCF7 breast = system: MCF7 breast
MDA-MB-231 breast = system: MDA-MB-231 breast
MDA-MB-435 = system: MDA-MB-435
MOLT-4 leukemia = system: MOLT-4 leukemia
NCI-H226 lung = system: NCI-H226 lung
NCI-H23 lung = system: NCI-H23 lung
NCI-H460 lung = system: NCI-H460 lung
NCI-H522 lung = system: NCI-H522 lung
NCI/ADR-RES ovarian = system: NCI/ADR-RES ovarian
OVCAR-3 ovarian = system: OVCAR-3 ovarian
OVCAR-4 ovarian = system: OVCAR-4 ovarian
OVCAR-5 ovarian = system: OVCAR-5 ovarian
OVCAR-8 ovarian = system: OVCAR-8 ovarian
PC-3 prostate = system: PC-3 prostate
RPMI-8226 leukemia = system: RPMI-8226 leukemia
RXF 393 renal = system: RXF 393 renal
SF-268 CNS = system: SF-268 CNS
SF-295 CNS = system: SF-295 CNS
SF-539 CNS = system: SF-539 CNS
SK-MEL-2 melanoma = system: SK-MEL-2 melanoma
SK-MEL-28 melanoma = system: SK-MEL-28 melanoma
SK-MEL-5 melanoma = system: SK-MEL-5 melanoma
SK-OV-3 ovarian = system: SK-OV-3 ovarian
SN12C renal = system: SN12C renal
SNB-19 CNS = system: SNB-19 CNS
SNB-75 CNS = system: SNB-75 CNS
SR leukemia = system: SR leukemia
SW-620 colon = system: SW-620 colon
T-47D breast = system: T-47D breast
TK-10 renal = system: TK-10 renal
U251 CNS = system: U251 CNS
UACC-257 melanoma = system: UACC-257 melanoma
UACC-62 melanoma = system: UACC-62 melanoma
UO-31 renal = system: UO-31 renal

## C=C(C)[C@@H]1CC[C@]2(COCCCNCCCN)CC[C@]3(C)[C@H](CC[C@@H]4[C@@]5(C)CC[C@H](OCCCN)C(C)(C)[C@@H]5CC[C@]43C)[C@@H]12
786-0 renal
  GI50: 825 nM
  TGI: 1500 nM
A498 renal
  GI50: 7220 nM
  TGI: 14400 nM
A549 NSCLC
  GI50: 909 nM
  TGI: 1710 nM
ACHN renal
  GI50: 996 nM
  TGI: 1950 nM
BT-549 breast
  GI50: 6860 nM
  TGI: 14200 nM
CAKI-1 renal
  GI50: 982 nM
  TGI: 2300 nM
CCRF-CEM leukemia
  GI50: 822 nM
  TGI: 1970 nM
COLO 205 colon
  GI50: 778 nM
  TGI: 1560 nM
DU-145 prostate
  GI50: 895 nM
  TGI: 1620 nM
EKVX NSCLC
  GI50: 812 nM
  TGI: 1610 nM
HCC-2998 colon
  GI50: 960 nM
  TGI: 1810 nM
HCT-116 colon
  GI50: 898 nM
  TGI: 1670 nM
HCT-15 colon
  GI50: 860 nM
  TGI: 1590 nM
HL-60(TB) leukemia
  GI50: 2120 nM
  TGI: 8330 nM
HOP-62 NSCLC
  GI50: 831 nM
  TGI: 1620 nM
HOP-92 NSCLC
  GI50: 2100 nM
  TGI: 9760 nM
HS 578T breast
  GI50: 997 nM
  TGI: 2150 nM
HT29 colon
  GI50: 813 nM
  TGI: 1530 nM
IGROV1 ovarian
  GI50: 930 nM
  TGI: 1720 nM
K-562 leukemia
  GI50: 879 nM
  TGI: 1820 nM
KM12 colon
  GI50: 928 nM
  TGI: 1730 nM
LOX IMVI melanoma
  GI50: 846 nM
  TGI: 1570 nM
M14 melanoma
  GI50: 866 nM
  TGI: 1650 nM
MALME-3M melanoma
  GI50: 801 nM
  TGI: 1530 nM
MCF7 breast
  GI50: 879 nM
  TGI: 1700 nM
MDA-MB-231 breast
  GI50: 863 nM
  TGI: 1670 nM
MDA-MB-435
  GI50: 833 nM
  TGI: 1530 nM
MOLT-4 leukemia
  GI50: 1050 nM
  TGI: 2580 nM
NCI-H226 lung
  GI50: 1040 nM
  TGI: 2340 nM
NCI-H23 lung
  GI50: 934 nM
  TGI: 1790 nM
NCI-H460 lung
  GI50: 940 nM
  TGI: 1750 nM
NCI-H522 lung
  GI50: 868 nM
  TGI: 1720 nM
NCI/ADR-RES ovarian
  GI50: 936 nM
  TGI: 1870 nM
OVCAR-3 ovarian
  GI50: 942 nM
  TGI: 1720 nM
OVCAR-4 ovarian
  GI50: 934 nM
  TGI: 1780 nM
OVCAR-5 ovarian
  GI50: 918 nM
  TGI: 1670 nM
OVCAR-8 ovarian
  GI50: 903 nM
  TGI: 1720 nM
PC-3 prostate
  GI50: 874 nM
  TGI: 1720 nM
RPMI-8226 leukemia
  GI50: 1070 nM
  TGI: 2560 nM
RXF 393 renal
  GI50: 825 nM
  TGI: 1610 nM
SF-268 CNS
  GI50: 6770 nM
  TGI: 15100 nM
SF-295 CNS
  GI50: 868 nM
  TGI: 1590 nM
SF-539 CNS
  GI50: 891 nM
  TGI: 1590 nM
SK-MEL-2 melanoma
  GI50: 6860 nM
  TGI: 13800 nM
SK-MEL-28 melanoma
  GI50: 876 nM
  TGI: 1600 nM
SK-MEL-5 melanoma
  GI50: 1720 nM
  TGI: 5810 nM
SK-OV-3 ovarian
  GI50: 1390 nM
  TGI: 4280 nM
SN12C renal
  GI50: 867 nM
  TGI: 1620 nM
SNB-19 CNS
  GI50: 913 nM
  TGI: 1660 nM
SNB-75 CNS
  GI50: 778 nM
  TGI: 1570 nM
SR leukemia
  GI50: 577 nM
  TGI: 1940 nM
SW-620 colon
  GI50: 871 nM
  TGI: 1670 nM
T-47D breast
  GI50: 858 nM
  TGI: 1710 nM
TK-10 renal
  GI50: 952 nM
  TGI: 1940 nM
U251 CNS
  GI50: 836 nM
  TGI: 1540 nM
UACC-257 melanoma
  GI50: 914 nM
  TGI: 1750 nM
UACC-62 melanoma
  GI50: 914 nM
  TGI: 1670 nM
UO-31 renal
  GI50: 765 nM
  TGI: 1500 nM
